# According to patent US6313171A, “Method for preventing or treating elevated blood lipid level-related diseases by administering cinnamic acid derivatives” (Korea Research Institute of Bioscience & Biotechnology, priority 1998, dated 2001):
# How the values were obtained:
# [1] = assay type: in vivo, rabbit (New Zealand White); settings: rabbits, 1% cholesterol diet plus 0.1% derivative or 1 mg/kg Lovastatin, 8 weeks
# Procedure: (§1) 30 three-month-old male New Zealand White rabbits (Yeonam Horticulture and Animal Husbandry College, Korea), each weighing about 2.5 to 2.6 kg, were raised under condition of temperature 20±2° C., relative humidity 55±5%, and photoperiod 12L/12D. The rabbits were divided into 5 groups and 5 groups of rabbits were fed with 5 different diets, i.e., RC4 diet (Oriental Yeast Co., Japan) containing 1% cholesterol (Control group); 1% cholesterol plus 1 mg/kg Lovastatin® (Merck, U.S.A.) (Lovastatin group); 1% cholesterol plus 0.1% 4-hydroxycinnamic acid (4-hydroxycinnamic acid group); 1% cholesterol plus 0.1% 3,4-dihydroxycinnamic acid (3,4-dihydroxycinnamic acid group); and 1% cholesterol plus 0.1% 3,4-dihydroxyhydrocinnamic acid (3,4-dihydroxyhydrocinnamic acid group), respectively. RC4 diet comprises 7.6% moisture, 22.8% crude protein, 2.8% crude fat, 8.8% crude ash, 14.4% crude cellulose and 43.6% soluble nitrogen-free substances. Cinnamic acid derivatives were purchased from Sigma Chemical Co. (St. Louis, Mo.).
# (§2) The rabbits were fed for 8 weeks while being allowed free access to the diets and water.
# After eight weeks, the rabbits were anesthetized with an intramuscular injection of ketamine (50 mg/kg) in the femoral region and sacrificed. A blood sample was taken from the heart of each rabbit, allowed to stand for 2 hours and centrifuged at 3,000 rpm for 15 minutes and the supernatant serum was separated and stored in a freezer before use.
# The chemical analysis of blood was carried out by employing a blood chemical analyzer (CIBA Corning 550 Express, USA) to determine the changes in GOT, GPT, total cholesterol, HDL-cholesterol and triglyceride levels.
# main artery = test: Analysis for fatty streak in the main artery of rabbits; assay type: in vivo, rabbit (New Zealand White)
# Procedure: Cinnamic acid derivatives were purchased from Sigma Chemical Co. (St. Louis, Mo.). The rabbits were fed for 8 weeks while being allowed free access to the diets and water. The chest of each of the rabbits sacrificed in Step 2 was incised. […] The main artery was incised in the middle along the longitudinal axis and pinned to a dish. The moist artery was photographed and, then, the staining of fatty streaks was carried out in accordance with the method of […]., et al. (J. Lab. Clin. Med., 121, 103-110(1993)) as follows. A part of the incised main artery was washed three times with anhydrous propylene glycol for 2 min. and stained for 30 min. with a saturated solution of Oil Red O (ORO, Sigma Co.) dissolved in propylene glycol. Thereafter, the artery was washed twice with 85% propylene glycol for 3 min. to remove remaining staining solution and, then washed with physiological saline. The artery was photographed and the photograph was traced. The area of stained region (fatty streak region) was determined with an image analyzer (LEICA, Q-600, Germany) and its proportion (%) to the total arterial area was calculated.
# liver = test: Prevention of hepatic diseases: microscopic fatty liver grading in rabbits; assay type: in vivo, rabbit (New Zealand White)
# Procedure: as §1, §2
# [2] = Farmer et al. 1995; cited from earlier work
smiles,measurement,setting,value
"CC[C@H](C)C(=O)O[C@H]1C[C@@H](C)C=C2C=C[C@H](C)[C@H](CC[C@@H]3C[C@@H](O)CC(=O)O3)[C@H]21 [Lovastatin, reference compound]",HDL/TC,[1]; Control 2.5 ± 0.4,4.9 ± 2.6%
same,HDL-C (High density lipoprotein-cholesterol),[1]; Control 50 ± 11,58 ± 23 mg/dL
same,TG (Triglyceride),[1]; Control 170 ± 30,153 ± 95 mg/dL
same,TC (Total cholesterol),[1]; Control 1995 ± 472,1446 ± 263 mg/dL
same,macrophage-lipid complex on the arterial endothelium,"main artery; FIGS. 1A-1E, control: a thick layer",no or very thin layers of macrophage-lipid complex
same,Fatty streak,"main artery; proportion of total arterial area, Oil Red O, rabbits, 8 weeks, Control 80 ± 8",15 ± 3%
same,microscopic features of the liver,"liver; FIGS. 2A-2E, control: many cells containing excessive fat around the central vein",many cells containing excessive fat were observed around the central vein
same,fatty liver grade (1+ to 4+),"liver; grades 1+(0-25%), 2+(26-50%), 3+(51-75), 4+(76-100%), rabbits, 8 weeks, Control 3.2 ± 0.3",3.4 ± 0.5
same,side effects,[2],increase in creatine kinase in the liver and rhabdomyolysis
